Reference: paper PMC5218480 (PLoS ONE, 2017)

Tested on: MV-4-11 cells
Test: Gene expression microarray analysis (Affymetrix PrimeView) and GSEA
Format: cell-based, human
Parameters: RFU PODN (11730768_x_at) / Fold change /veh PODN (11730768_x_at) / RFU LINC00158 (11744669_a_at) / Fold change /veh LINC00158 (11744669_a_at) / RFU DUSP10 (11751237_a_at) / Fold change /veh DUSP10 (11751237_a_at) / RFU ID3 (11757404_x_at) / Fold change /veh ID3 (11757404_x_at) / RFU PLEKHG5 (11737974_s_at) / Fold change /veh PLEKHG5 (11737974_s_at) / RFU LRRC4B (11730491_at) / Fold change /veh LRRC4B (11730491_at) / RFU GIMAP4 (11747438_a_at) / Fold change /veh GIMAP4 (11747438_a_at) / RFU KRT8 (11758183_x_at) / Fold change /veh KRT8 (11758183_x_at) / RFU CNN1 (11734310_a_at) / Fold change /veh CNN1 (11734310_a_at) / RFU VPS37D (11726825_at) / Fold change /veh VPS37D (11726825_at) / RFU C10orf10 (11716522_x_at) / Fold change /veh C10orf10 (11716522_x_at) / RFU KIR2DL2 /// KIR2DL4 /// KIR2DL5A /// KIR2DL5B /// KIR2DS1 /// KIR2DS2 /// KIR2DS3 /// KIR2DS4 /// KIR3DL3 /// KIR3DL3 /// KIR3DS1 (11738374_at) / Fold change /veh KIR2DL2 /// KIR2DL4 /// KIR2DL5A /// KIR2DL5B /// KIR2DS1 /// KIR2DS2 /// KIR2DS3 /// KIR2DS4 /// KIR3DL3 /// KIR3DL3 /// KIR3DS1 (11738374_at) / RFU C1QL1 (11718748_at) / Fold change /veh C1QL1 (11718748_at) / RFU TMPRSS4 (11747572_a_at) / Fold change /veh TMPRSS4 (11747572_a_at) / RFU HAMP (11756126_x_at) / Fold change /veh HAMP (11756126_x_at) / RFU RNFT2 (11725882_a_at) / Fold change /veh RNFT2 (11725882_a_at) / RFU NR4A2 (11747474_a_at) / Fold change /veh NR4A2 (11747474_a_at) / RFU ABCC12 (11746883_a_at) / Fold change /veh ABCC12 (11746883_a_at) / RFU TMEM136 (11760407_x_at) / Fold change /veh TMEM136 (11760407_x_at) / RFU CLDN22 /// WWC2 (11732394_at) / Fold change /veh CLDN22 /// WWC2 (11732394_at) / RFU HLA-DPB1 (11760878_x_at) / Fold change /veh HLA-DPB1 (11760878_x_at) / RFU SPINT1 (11716480_a_at) / Fold change /veh SPINT1 (11716480_a_at) / RFU GAP43 (11754022_s_at) / Fold change /veh GAP43 (11754022_s_at) / RFU A4GNT (11735810_at) / Fold change /veh A4GNT (11735810_at) / RFU PRB3 (11715151_x_at) / Fold change /veh PRB3 (11715151_x_at) / RFU TUBB4B (11761932_at) / Fold change /veh TUBB4B (11761932_at) / RFU CAPN14 (11732068_a_at) / Fold change /veh CAPN14 (11732068_a_at) / RFU TMCC2 (11721928_a_at) / Fold change /veh TMCC2 (11721928_a_at) / RFU IRGQ (11745062_a_at) / Fold change /veh IRGQ (11745062_a_at) / RFU FAM174B (11720279_a_at) / Fold change /veh FAM174B (11720279_a_at) / RFU TMPRSS4 (11748680_a_at) / Fold change /veh TMPRSS4 (11748680_a_at) / RFU FAM212B (11763350_a_at) / Fold change /veh FAM212B (11763350_a_at) / RFU PLEKHG5 (11743358_a_at) / Fold change /veh PLEKHG5 (11743358_a_at) / RFU ZSCAN30 (11745921_a_at) / Fold change /veh ZSCAN30 (11745921_a_at) / RFU CMKLR1 (11741424_a_at) / Fold change /veh CMKLR1 (11741424_a_at) / RFU LOC101060620 /// MAPK8IP1 (11723275_at) / Fold change /veh LOC101060620 /// MAPK8IP1 (11723275_at) / RFU SPTSSB (11747773_x_at) / Fold change /veh SPTSSB (11747773_x_at) / RFU PRSS12 (11739890_at) / Fold change /veh PRSS12 (11739890_at) / RFU BIN1 (11741810_x_at) / Fold change /veh BIN1 (11741810_x_at) / RFU WNT11 (11732464_a_at) / Fold change /veh WNT11 (11732464_a_at) / RFU C10orf10 (11716521_a_at) / Fold change /veh C10orf10 (11716521_a_at) / RFU C5orf56 (11738089_at) / Fold change /veh C5orf56 (11738089_at) / RFU CYB561 (11721691_x_at) / Fold change /veh CYB561 (11721691_x_at) / RFU ANKRD19P (11752326_a_at) / Fold change /veh ANKRD19P (11752326_a_at) / RFU OR2T12 /// OR2T33 /// OR2T8 (11738714_s_at) / Fold change /veh OR2T12 /// OR2T33 /// OR2T8 (11738714_s_at) / RFU VCAN (11748164_a_at) / Fold change /veh VCAN (11748164_a_at) / RFU JSRP1 (11732532_at) / Fold change /veh JSRP1 (11732532_at) / RFU KRTAP10-11 (11738290_x_at) / Fold change /veh KRTAP10-11 (11738290_x_at) / RFU MYO3A (11730013_a_at) / Fold change /veh MYO3A (11730013_a_at) / RFU EBF3 (11725865_a_at) / Fold change /veh EBF3 (11725865_a_at) / RFU CAMK2N1 (11719241_x_at) / Fold change /veh CAMK2N1 (11719241_x_at) / RFU C5orf56 (11738088_a_at) / Fold change /veh C5orf56 (11738088_a_at) / RFU OLFML3 (11715873_a_at) / Fold change /veh OLFML3 (11715873_a_at) / RFU LOC100653217 /// NTM (11731650_a_at) / Fold change /veh LOC100653217 /// NTM (11731650_a_at) / RFU MAPK11 (11762145_a_at) / Fold change /veh MAPK11 (11762145_a_at) / RFU FIZ1 (11724087_x_at) / Fold change /veh FIZ1 (11724087_x_at) / RFU OASL (11726364_x_at) / Fold change /veh OASL (11726364_x_at) / RFU SOX15 (11748057_x_at) / Fold change /veh SOX15 (11748057_x_at) / RFU CD79A (11719716_a_at) / Fold change /veh CD79A (11719716_a_at) / RFU HIST1H1D (11736915_at) / Fold change /veh HIST1H1D (11736915_at) / RFU CASKIN2 (11723855_a_at) / Fold change /veh CASKIN2 (11723855_a_at) / RFU LOC730098 (11760151_x_at) / Fold change /veh LOC730098 (11760151_x_at) / RFU OR4N2 (11742367_at) / Fold change /veh OR4N2 (11742367_at) / RFU PRRT2 (11749266_a_at) / Fold change /veh PRRT2 (11749266_a_at) / RFU SNX32 (11753110_a_at) / Fold change /veh SNX32 (11753110_a_at) / RFU CDHR5 (11726645_a_at) / Fold change /veh CDHR5 (11726645_a_at) / RFU RCAN1 (11760418_a_at) / Fold change /veh RCAN1 (11760418_a_at) / RFU FAM167A (11723789_a_at) / Fold change /veh FAM167A (11723789_a_at) / RFU FAM26E (11764081_at) / Fold change /veh FAM26E (11764081_at) / RFU ISYNA1 (11749810_s_at) / Fold change /veh ISYNA1 (11749810_s_at) / RFU ACY1 (11761880_at) / Fold change /veh ACY1 (11761880_at) / RFU 11764098_at / Fold change /veh 11764098_at / RFU SAMD14 (11745864_x_at) / Fold change /veh SAMD14 (11745864_x_at) / RFU NPB (11741838_a_at) / Fold change /veh NPB (11741838_a_at) / RFU TMPRSS6 (11731388_a_at) / Fold change /veh TMPRSS6 (11731388_a_at) / RFU KRTAP10-2 (11738614_at) / Fold change /veh KRTAP10-2 (11738614_at) / RFU ARHGAP8 /// PRR5-ARHGAP8 (11727945_x_at) / Fold change /veh ARHGAP8 /// PRR5-ARHGAP8 (11727945_x_at) / RFU KRTAP5-7 /// NADSYN1 (11734609_at) / Fold change /veh KRTAP5-7 /// NADSYN1 (11734609_at) / RFU RASL12 (11751679_a_at) / Fold change /veh RASL12 (11751679_a_at) / RFU CDKN2B (11736163_a_at) / Fold change /veh CDKN2B (11736163_a_at) / RFU PRF1 (11729649_at) / Fold change /veh PRF1 (11729649_at) / RFU, ZNF638 /// ZNF638-IT1 / Fold change vs veh, ZNF638 /// ZNF638-IT1 / RFU, PANK3 / Fold change vs veh, PANK3 / RFU, SH3YL1 / Fold change vs veh, SH3YL1 / RFU, ZEB2 / Fold change vs veh, ZEB2 / RFU, NRIP1 / Fold change vs veh, NRIP1 / RFU, PTTG1IP / Fold change vs veh, PTTG1IP / RFU, CAPN2 / Fold change vs veh, CAPN2 / RFU, MED14 / Fold change vs veh, MED14 / RFU, SNORA58 / Fold change vs veh, SNORA58 / RFU, C1orf63 / Fold change vs veh, C1orf63 / RFU, LRRFIP1 / Fold change vs veh, LRRFIP1 / RFU, NDUFAF7 / Fold change vs veh, NDUFAF7 / RFU, SLC12A2 / Fold change vs veh, SLC12A2 / RFU, IBTK / Fold change vs veh, IBTK / RFU, ESF1 / Fold change vs veh, ESF1 / Fold change vs veh, TMEM50B / RFU, TAOK1 / Fold change vs veh, TAOK1 / RFU, ACBD3 / Fold change vs veh, ACBD3 / RFU, TMA16 / Fold change vs veh, TMA16 / RFU, RWDD3 / Fold change vs veh, RWDD3 / RFU, BCAT1 / Fold change vs veh, BCAT1 / RFU, EDEM3 / Fold change vs veh, EDEM3 / RFU, TMEM33 / Fold change vs veh, TMEM33 / RFU, WDR75 / Fold change vs veh, WDR75 / RFU, AHCTF1 / Fold change vs veh, AHCTF1 / RFU, TFRC / Fold change vs veh, TFRC / RFU, ZDHHC17 / Fold change vs veh, ZDHHC17 / RFU, NOM1 / Fold change vs veh, NOM1 / RFU, ARL8B / Fold change vs veh, ARL8B / RFU, ZBTB11 / Fold change vs veh, ZBTB11 / RFU, TAMM41 / Fold change vs veh, TAMM41 / RFU, KIAA1704 /// LOC100996395 / Fold change vs veh, KIAA1704 /// LOC100996395 / RFU, ING1 / Fold change vs veh, ING1 / RFU, TRMT61B / Fold change vs veh, TRMT61B / RFU, FUBP3 / Fold change vs veh, FUBP3 / RFU, TP53 / Fold change vs veh, TP53 / RFU, TNKS2 / Fold change vs veh, TNKS2 / RFU, ZFP14 / Fold change vs veh, ZFP14 / RFU, ACTR2 / Fold change vs veh, ACTR2 / RFU, PPP3R1 / Fold change vs veh, PPP3R1 / RFU, PIK3R1 / Fold change vs veh, PIK3R1 / RFU, HNRNPA1 / Fold change vs veh, HNRNPA1 / RFU, RNF170 / Fold change vs veh, RNF170 / RFU, ZNF28 / Fold change vs veh, ZNF28 / RFU, RNGTT / Fold change vs veh, RNGTT / RFU, OGT / Fold change vs veh, OGT / RFU, BRD1 / Fold change vs veh, BRD1 / RFU, MARS / Fold change vs veh, MARS / RFU, ZNF655 / Fold change vs veh, ZNF655 / RFU, FAHD1 / Fold change vs veh, FAHD1 / RFU, BDP1 / Fold change vs veh, BDP1 / RFU, LRRCC1 / Fold change vs veh, LRRCC1 / RFU, ARID1A / Fold change vs veh, ARID1A / RFU, ZNF146 / Fold change vs veh, ZNF146 / RFU, ZNF330 / Fold change vs veh, ZNF330 / RFU, GPN3 / Fold change vs veh, GPN3 / RFU, C9orf123 / Fold change vs veh, C9orf123 / RFU, N4BP2L2 / Fold change vs veh, N4BP2L2 / RFU, ARFIP1 / Fold change vs veh, ARFIP1 / RFU, FAM179B / Fold change vs veh, FAM179B / RFU, BCL10 / Fold change vs veh, BCL10 / RFU, UHRF1BP1L / Fold change vs veh, UHRF1BP1L / RFU, BET1 / Fold change vs veh, BET1 / RFU, CNOT2 / Fold change vs veh, CNOT2 / RFU, ZNF268 / Fold change vs veh, ZNF268 / Fold change vs veh, ZNF507 / RFU, DGCR2 / Fold change vs veh, DGCR2 / RFU, WDSUB1 / Fold change vs veh, WDSUB1 / Fold change vs veh, HSP90B1 /// MIR3652 / RFU, ADSS / Fold change vs veh, ADSS / RFU, GK / Fold change vs veh, GK / RFU, ZNF148 / Fold change vs veh, ZNF148 / RFU, TAF9 / Fold change vs veh, TAF9 / RFU, SLC1A5 / Fold change vs veh, SLC1A5 / RFU, SLMO2 / Fold change vs veh, SLMO2 / RFU, ABCC4 / Fold change vs veh, ABCC4 / RFU, LOC101060439 /// RAP1B / Fold change vs veh, LOC101060439 /// RAP1B / RFU, RFX7 / Fold change vs veh, RFX7 / RFU, GTPBP10 / Fold change vs veh, GTPBP10 / RFU, CNEP1R1 / Fold change vs veh, CNEP1R1 / RFU, BIVM-ERCC5 /// ERCC5 / Fold change vs veh, BIVM-ERCC5 /// ERCC5 / RFU, ILF3 / Fold change vs veh, ILF3 / RFU 11762660_at / Fold change /veh 11762660_at / RFU VCAN (11757783_s_at) / Fold change /veh VCAN (11757783_s_at) / RFU DDX43 (11728927_at) / Fold change /veh DDX43 (11728927_at) / RFU KRT8 (11758188_x_at) / Fold change /veh KRT8 (11758188_x_at) / RFU NKD1 (11759106_at) / Fold change /veh NKD1 (11759106_at) / RFU SRD5A1 (11742802_a_at) / Fold change /veh SRD5A1 (11742802_a_at) / RFU TPSAB1 /// TPSB2 (11721975_s_at) / Fold change /veh TPSAB1 /// TPSB2 (11721975_s_at) / RFU GSTM3 (11746129_a_at) / Fold change /veh GSTM3 (11746129_a_at) / RFU IL23R (11737362_x_at) / Fold change /veh IL23R (11737362_x_at) / RFU TMEM51 (11727254_a_at) / Fold change /veh TMEM51 (11727254_a_at) / RFU PIWIL2 (11732686_x_at) / Fold change /veh PIWIL2 (11732686_x_at) / RFU ORM1 (11744905_x_at) / Fold change /veh ORM1 (11744905_x_at) / RFU CCDC152 (11743942_at) / Fold change /veh CCDC152 (11743942_at) / RFU ECM1 (11717891_a_at) / Fold change /veh ECM1 (11717891_a_at) / RFU IL23R (11748794_a_at) / Fold change /veh IL23R (11748794_a_at) / RFU TNFAIP8L3 (11732012_x_at) / Fold change /veh TNFAIP8L3 (11732012_x_at) / RFU MBOAT4 (11741988_at) / Fold change /veh MBOAT4 (11741988_at) / RFU 11764193_at / Fold change /veh 11764193_at / RFU TMEM53 (11763286_at) / Fold change /veh TMEM53 (11763286_at) / RFU MAGEB2 (11727129_at) / Fold change /veh MAGEB2 (11727129_at) / RFU TMEM200A (11744735_a_at) / Fold change /veh TMEM200A (11744735_a_at) / RFU CCDC152 (11751479_a_at) / Fold change /veh CCDC152 (11751479_a_at) / RFU FAM211A (11726209_a_at) / Fold change /veh FAM211A (11726209_a_at) / RFU RGS16 (11746705_a_at) / Fold change /veh RGS16 (11746705_a_at) / RFU VCAN (11755009_s_at) / Fold change /veh VCAN (11755009_s_at) / RFU RHOB (11743442_s_at) / Fold change /veh RHOB (11743442_s_at) / RFU RGS16 (11720943_a_at) / Fold change /veh RGS16 (11720943_a_at) / RFU RGS16 (11720944_at) / Fold change /veh RGS16 (11720944_at) / RFU, VPS4B / Fold change vs veh, VPS4B / RFU, CREB1 / Fold change vs veh, CREB1 / RFU, DNAJC13 / Fold change vs veh, DNAJC13 / RFU, GNAQ / Fold change vs veh, GNAQ / RFU, CDK5R1 / Fold change vs veh, CDK5R1 / RFU, ZRANB3 / Fold change vs veh, ZRANB3 / RFU, CUL4A / Fold change vs veh, CUL4A / RFU, CCNY / Fold change vs veh, CCNY / RFU, UFL1 / Fold change vs veh, UFL1 / RFU, COG3 / Fold change vs veh, COG3 / RFU, DIAPH2 / Fold change vs veh, DIAPH2 / RFU, SKA2 / Fold change vs veh, SKA2 / RFU, AFF3 / Fold change vs veh, AFF3 / RFU, LMF1 / Fold change vs veh, LMF1 / RFU, IPO11 / Fold change vs veh, IPO11 / RFU, DFFB / Fold change vs veh, DFFB / RFU, FOXP1 / Fold change vs veh, FOXP1 / RFU, CARD8 / Fold change vs veh, CARD8 / RFU, STRN3 / Fold change vs veh, STRN3 / RFU, ADK / Fold change vs veh, ADK / RFU, RASSF2 / Fold change vs veh, RASSF2 / RFU, WIPF1 / Fold change vs veh, WIPF1 / RFU, LARP1B / Fold change vs veh, LARP1B / RFU, RASA1 / Fold change vs veh, RASA1 / RFU, RB1 / Fold change vs veh, RB1 / RFU, PPFIA1 / Fold change vs veh, PPFIA1 / RFU, MAT2A / Fold change vs veh, MAT2A / RFU, CCT5 / Fold change vs veh, CCT5 / RFU, WDR92 / Fold change vs veh, WDR92 / RFU, CUX1 / Fold change vs veh, CUX1 / RFU, TTC7A / Fold change vs veh, TTC7A / RFU, TMEM135 / Fold change vs veh, TMEM135 / RFU, DEPTOR / Fold change vs veh, DEPTOR / RFU, CPM / Fold change vs veh, CPM / RFU, DNAJB6 / Fold change vs veh, DNAJB6 / RFU, CACNA2D3 / Fold change vs veh, CACNA2D3 / RFU, DTX4 / Fold change vs veh, DTX4 / RFU, TFCP2 / Fold change vs veh, TFCP2 / RFU, GMCL1 /// GMCL1P1 / Fold change vs veh, GMCL1 /// GMCL1P1 / RFU, AEBP2 / Fold change vs veh, AEBP2 / RFU, SNHG1 /// SNORD22 /// SNORD25 /// SNORD26 /// SNORD27 /// SNORD28 /// SNORD29 /// SNORD31 / Fold change vs veh, SNHG1 /// SNORD22 /// SNORD25 /// SNORD26 /// SNORD27 /// SNORD28 /// SNORD29 /// SNORD31 / Fold change (Aza/veh), C12orf56 (ProbeSet 11735607_a_at) / Fold change (ACY-1035/veh), C12orf56 (ProbeSet 11735607_a_at) / Fold change (Aza/veh), FGFR1OP (ProbeSet 11751329_s_at) / Fold change (ACY-1035/veh), FGFR1OP (ProbeSet 11751329_s_at) / Fold change (Aza/veh), VPS36 (ProbeSet 11739960_a_at) / Fold change (ACY-1035/veh), VPS36 (ProbeSet 11739960_a_at) / RFU SYPL1 (11715823_x_at) / Fold change /veh SYPL1 (11715823_x_at) / RFU IGFBP7 (11715501_s_at) / Fold change /veh IGFBP7 (11715501_s_at) / RFU REEP3 (11722064_at) / Fold change /veh REEP3 (11722064_at) / RFU IGLL1 (11728026_x_at) / Fold change /veh IGLL1 (11728026_x_at): dose or concentration left out as unconfirmed
Details: MV-4-11 cells, 48 hours

## Nc1ncn([C@@H]2O[C@H](CO)[C@@H](O)[C@H]2O)c(=O)n1 [azacitidine]
  Fold change /veh TMPRSS4 (11747572_a_at): 1.01
